Experimental data: publication PMC9120017, “Inhibition mechanism of the chloride channel TMEM16A by the pore blocker 1PBC” (Nature Communications, 2022)

Target: T1, mouse TMEM16F (Mus musculus, UniProt Q6P9J9)
T1 construct: expressed in transfected cells; host or cells: HEK293T
T1 sequence (Q6P9J9 1-911): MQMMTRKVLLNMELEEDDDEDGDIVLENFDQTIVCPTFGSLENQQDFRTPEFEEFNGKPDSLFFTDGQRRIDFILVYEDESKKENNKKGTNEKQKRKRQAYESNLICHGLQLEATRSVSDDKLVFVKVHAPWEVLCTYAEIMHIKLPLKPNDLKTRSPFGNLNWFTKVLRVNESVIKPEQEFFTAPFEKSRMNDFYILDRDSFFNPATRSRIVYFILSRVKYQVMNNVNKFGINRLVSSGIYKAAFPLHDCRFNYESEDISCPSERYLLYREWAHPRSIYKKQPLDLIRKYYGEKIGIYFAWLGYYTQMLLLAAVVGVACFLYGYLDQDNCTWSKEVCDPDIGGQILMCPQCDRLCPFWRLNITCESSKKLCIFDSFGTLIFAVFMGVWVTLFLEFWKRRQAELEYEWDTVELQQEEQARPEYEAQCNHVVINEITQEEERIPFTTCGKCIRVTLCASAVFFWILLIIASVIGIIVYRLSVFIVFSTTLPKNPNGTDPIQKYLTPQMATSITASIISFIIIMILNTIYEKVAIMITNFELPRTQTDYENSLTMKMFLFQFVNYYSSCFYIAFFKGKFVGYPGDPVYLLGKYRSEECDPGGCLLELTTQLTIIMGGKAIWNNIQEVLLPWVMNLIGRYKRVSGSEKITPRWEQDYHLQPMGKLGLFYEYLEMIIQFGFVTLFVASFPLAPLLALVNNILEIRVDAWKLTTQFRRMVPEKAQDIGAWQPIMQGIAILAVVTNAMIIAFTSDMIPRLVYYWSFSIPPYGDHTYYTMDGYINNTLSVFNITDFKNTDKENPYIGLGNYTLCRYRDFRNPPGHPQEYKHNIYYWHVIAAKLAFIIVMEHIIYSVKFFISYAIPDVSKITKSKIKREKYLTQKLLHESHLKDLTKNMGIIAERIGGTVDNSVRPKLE
Experiment: Inside-out patch recording of 1PBC block, TMEM16F
Format: cell-based
Conditions: 300 µM Ca2+
Procedure: HEK293T cells (ATCC CRL-1573) were maintained in Dulbecco’s modified Eagle’s medium (DMEM; Sigma-Aldrich) supplemented with 10 U ml^−1 penicillin, 0.1 mg ml^−1 streptomycin (Sigma-Aldrich), 2 mM L-glutamine (Sigma-Aldrich), and 10% FBS (Sigma-Aldrich) in a humidified atmosphere containing 5% CO2 at 37 °C. HEK293S GnTI^− cells (ATCC CRL-3022) were maintained in HyClone HyCell TransFx-H medium (GE Healthcare) supplemented with 10 U ml^−1 penicillin, 0.1 mg ml^−1 streptomycin, 4 mM L-glutamine, 0.15% poloxamer 188 (Sigma-Aldrich), and 1% FBS in an atmosphere containing 5% CO2 at 185 rpm at 37 °C. The ac splice variant of mouse TMEM16A (UniProt ID: Q8BHY3), mouse TMEM16B (UniProt ID: Q8CFW1), or mouse TMEM16F (UniProt ID: Q6P9J9) bearing a 3C cleavage site, a Venus YFP, a Myc tag, and a Streptavidin-binding peptide (SBP) downstream of the open reading frame in a modified pcDNA3.1 vector (Invitrogen) were used as described previously[21],[31]. Mutations were introduced using a modified QuikChange method[58] and were verified by sequencing.
HEK293T cells were transfected with 3–4 μg DNA per 6 cm Petri dish using the calcium phosphate co-precipitation method and were used within 24–96 h after transfection. Recordings were performed on inside-out patches excised from HEK293T cells expressing the construct of interest. Patch pipettes were pulled from borosilicate glass capillaries (O.D. 1.5 mm, I.D. 0.86 mm, Sutter Instrument) and were fire-polished with a microforge (Narishige) before use. Pipette resistance was typically 3–8 MΩ when filled with the recording solutions detailed below. Seal resistance was typically 4 GΩ or higher. Voltage-clamp recordings were made using Axopatch 200B, Digidata 1550, and Clampex 10.7 (Molecular Devices). Analog signals were filtered with the in-built 4-pole Bessel filter at 10 kHz and were digitized at 20 kHz. Solution exchange was achieved using a gravity-fed system through a theta glass pipette mounted on an ultra-fast piezo-driven stepper (Siskiyou). […] All recordings were performed at 20 °C.
A symmetrical ionic condition was used throughout. Stock solution with Ca^2+-EGTA contained 150 mM NaCl, 5.99 mM Ca(OH)2, 5 mM EGTA, and 10 mM HEPES at pH 7.40. Stock solution with EGTA contained 150 mM NaCl, 5 mM EGTA, and 10 mM HEPES at pH 7.40. Free Ca^2+ concentrations were adjusted by mixing the stock solutions at the required ratios calculated using the WEBMAXC program (http://web.stanford.edu/~cpatton/webmaxcS.htm). Patch pipettes were filled with the stock solution with Ca^2+-EGTA, which has a free Ca^2+ concentration of 1 mM. 1PBC (ChemBridge) stock was reconstituted in anhydrous DMSO (Sigma-Aldrich) at 100 mM and stored at −20 °C. Working solutions with 1PBC were prepared by serial dilution. Unless otherwise stated, experiments were performed at a saturating Ca^2+ concentration as shown in Supplementary Table 1 and the primary data were corrected for current rundown as described previously[21],[25].
Concentration-response relations, obtained from the ratio of the I-V plots before and after the application of the blocker, were fitted to the Hill equation,1 I/Imax=1/1+IC50/[blocker]^h where I/Imax is the normalized current responses, IC50 defines the concentration at which inhibition is at its half-maximum, and h is the Hill coefficient.

N#Cc1c(C(F)(F)F)cc(O)n2c1nc1ccccc12 [1PBC] showed a remaining activity at 3 µM (3 µM 1PBC, +80 mV, read-out: I/Imax) of 100%, a remaining activity at 10 µM (10 µM 1PBC, +80 mV, read-out: I/Imax) of 98.7% and a remaining activity at 30 µM (30 µM 1PBC, +80 mV, read-out: I/Imax) of 101%. The remaining activity at 100 µM (100 µM 1PBC, +80 mV, read-out: I/Imax) was 100% and the “Inhibition of the current mediated by the scramblase TMEM16F” value (within the same concentration range) was “ineffective”.
